Tested on: GM-CSF-producing CD4-positive memory T-cells
Test: GM-CSF-producing CD4-positive memory T-cells in PBMCs of normal subjects after single oral dose (FACS)
Type: in vivo, human
Experimental: A single dose of compound 31, which is a synthetic glycolipid of the present invention, described in the first aspect, i.e., (2S,3S,4R)-1-O-(α-D-galactosyl)-2-(N-tetracosanoylamino)-1,3,4-nonanetriol represented by the following formula (III), was orally administered to each of subjects of 4 cohorts (A, B, C, and D cohorts) each consisting of 3 normal subjects shown in Table 1 above after obtainment of informed consent.
The dose was set to 0.3 mg per person for A cohort, 1 mg per person for B cohort, 3 mg per person for C cohort, and 10 mg per person for D cohort.
Subsequently, T-cell subfractions were prepared from the peripheral blood of each subject by using the density gradient centrifugation method. First, a total of 20 mL of blood was collected from the vein of each subject 24 hours (1st day), 48 hours (2nd day), 72 hours (3rd day), and 168 hours (7th day) after the administration of compound 31 by using two 10-mL heparin sodium-containing vacuum blood collection tubes. For a control, 20 mL of blood was similarly collected from the vein of each subject one day before the administration of compound 31.
Next, 4 mL of Ficoll-Paque Plus (GE Healthcare Biosciences Corp.) was placed in each of four 15-mL conical tubes, and 10 mL of blood diluted twice with phosphate buffered saline (PBS) was gently layered thereon. Then, density gradient centrifugation was performed by centrifugation at 1800 rpm at ordinary temperature for 30 minutes. After the centrifugation, a supernatant containing plasma and platelet was discarded, and lymphocytes present at the boundary layer between the supernatant layer and the Ficoll-Paque Plus layer were recovered into a fresh 50-mL conical tube. The 50-mL conical tube was filled by adding PBS thereto, followed by centrifugation at 1800 rpm at ordinary temperature for 5 minutes. […] After a supernatant was removed by suction again, a single cell suspension was prepared by adding 1 mL of AIM-V medium (Life Technologies Corp.), and then, the number of cells was measured with a counting chamber. […]

CCCCCCCCCCCCCCCCCCCCCCCC(=O)NC(COC1OC(CO)C(O)C(O)C1O)[C@H](O)C(O)CCCCC (stereo in doubt) [compound 31, (2S,3S,4R)-1-O-(α-D-galactosyl)-2-(N-tetracosanoylamino)-1,3,4-nonanetriol]
suppressive effects on CD4-positive memory T-cells (A cohort, 0.3 mg single oral (low dose)): high suppressive effects | growth of GM-CSF-producing CD4-positive memory T-cells (C and D cohorts (3 mg, 10 mg), 1 day after administration, transient): promoted | proportion of GM-CSF-producing CD4-positive memory T-cells in PBMCs (single oral dose, all cohorts (0.3, 1, 3, 10 mg), after administration vs pre-administration value (day-1)): decreased

Source: patent US12447167B2, “GM-CSF-producing t-cell control agent and Th1/Th2 immune balance regulator” (National Center of Neurology and Psychiatry, priority 2014, dated 2025)
